Where two headings read alike, the source gives them in different places.
What was measured:
[1] = Stability in drinking water; assay type: physicochemical; conditions: 0.25 mg/ml, room temperature, changed every 3 days
Experimental: AZT (Sigma) was administered ad libitum in the drinking water at a concentration of 0.25 mg/ml. AZT was stable in the drinking water at room temperature and was changed every 3 days.

BM5d proviral DNA = assay: PCR analysis of BM5d proviral DNA in spleen, lymph node and bone marrow; assay type: in vivo, C57BL/6 mice; conditions: at 10 weeks after infection
Description: The following oligonucleotide primers were used for the amplification of a 141-bp gag gene of defective virus genome (BM5d); 5' primer, 5'-AACCTTCCTCCTCTGCCA-3' (sense) corresponding to nucleotides 1456-1473 and 3' primer, 5'-ACCACCTCTCGGGCTTTC-3' (antisense) corresponding to nucleotides 1579-1596 of the BM5d genome (Chat topadhyay SK, Sengupta D.N., FredricksonT.N., Morse H.C. III, Hartley J.W., "Characteristics and contributions of defective, ecotropic and mink cell focus-inducing viruses in a retrovirus induced immunodeficiency syndrome of mice.", J..Virol. 1991; 65: 4232-41.). A second pair or oligonucleotide primers was used for amplification of 203-bp of the mouse glucose-6-phosphate dehydrogenase (G6PD) gene. This amplification served as an internal control (endogenous standard) for evaluation of the relative BM5d proviral DNA. The nucleotide primers for the amplification were as follows: 5' primer, 5'-[…]-3' (sense) and 3' primer, 5'-[…]-3' (antisense) (Kurdi-Haidar B., Mason P.J., Berrebi A., et al., "Origin and spread of the glucose-6-phosphate dehydrogenase variant (G6PD-Mediterranean) in the Middle East.", Am. J. Hum. Genet. 1990; 47:1013-19.).
Probe D30, which was derived from the 137-bp Smal-Xhol p12 gag fragment of the defective virus genome (DU5H), was kindly provided by P. Jolicoeur (Montreal, Canada) (Aziz D.C., Hanna Z., Jolicoeur P., "Severe immunodeficiency disease induced by a defective murine leukemia virus.", Nature 1989; 338: 505-08).
Total cellular DNA was isolated from the spleens, lymph nodes and bone marrow of uninfected, infected and infected/treated mice by the sodium iodide isopropanol method.
PCR amplifications were performed in a 25 µl final volume using the Perkin Elmer GeneAMP kit (1 mM MgCl2, 2.5 U AmpliTag) with 0.3 µg total cellular DNA and 20 pmol of each primer.
PCR reaction were carried out for 37 cycles at 95°C for 30 sec, 58°C for 30 sec and 72°C for 30 sec with a final extension at 72°C for 10 min.
Products were analyzed by electrophoresis on agarose gel, blotted and hybridized with either the ^32P-labeled D30 or G6PD probe.
The intensity of radiolabeled bands was analyzed and quantified in a GS-250 Molecular Imager™ (Bio-Rad, Hercules, CA, USA). For BM5d proviral DNA detection the relative integration was determined by dividing the intensity of the BM5d bands by the intensity of G6PD bands (Fraternale A., Casabianca A., Rossi L., et al., "Inhibition of murine AIDS by combination of AZT and dideoxycytidine 5'-triphosphate.", J. Acquir. Imm. Def Syndr. and Hum. Retrovir. 1996; 12:164-73). The percentages of inhibition were referred to the infected mice.

LP-BM5 = assay type: in vivo, C57BL/6 mice; conditions: at 10 weeks after infection
Description: LP-BM5 virus was provided by Robert Yetter (Veternas Administration Hospital, Baltimore, MD) and was maintained in a persistently infected SC- 1 cell line as described (Hosier D.E., Yetter R.A., Morse H.C. III, "Functional T lymphocytes are required for a murine retrovirus induced immunodeficiency disease (MAIDS)", J. Exp. Med. 1987; 165:1737-42). C57BL/6 female mice were purchased from Nossan, Milan, Italy and were used at 5 weeks of age. Animals were infected by means of two successive intraperitoneal injections at 24-hr intervals. In the experiments reported three different virus preparations were used.
Mice were housed at 22±1°C with a 12-hr light-dark cycle, 60±5% humidity, and 12 air changes/hr.
First, the efficacy of 2-fluoro-ara-AMP (F-araAMP, Fludara) in inhibiting murine AIDS (MAIDS), a disease characterized by a lymphoproliferative disorder (lymphadenopathy and splenomegaly), associated with severe immunodeficiency and hypergammaglobulinemia, was evaluated. The disease develops in some strains of mice (C57BL/6) that are infected with a murine leukemia virus mixture termed LP-BM5. In the first preliminary experiments (after about 4 months from infection) LP-BMS infected animals were treated with three different concentrations of F-ara-AMP: 0.065 mg/mouse, 0.325 mg/mouse, 0.650 mg/mouse. The animals of each group were treated intraperitoneally for 3 days a week and for 3 weeks. At the end of the treatment animals were killed and splenomegaly, lymphadenopathy and hypergammaglobulinemia were evaluated.
Infected mice after 7 weeks from infection were treated intraperitoneally with Fludara as follows: • 1. 0.65 mg/mouse once a day for 4 days a week (total dose 7.8 mg/mouse); • 2. 0.65 mg/mouse twice a day for 5 days a week (total dose 19.5 mg/mouse); • 3. […]

[2] = treatment a: AZT 250 mg/l in drinking water for 6 weeks
[3] = treatment b: AZT 250 mg/l in drinking water for 10 weeks

Structure (SMILES): Cc1cn([C@H]2C[C@H](N=[N+]=[N-])[C@@H](CO)O2)c(=O)[nH]c1=O [AZT, 3'-Azido-3'-desoxythymidin]
- stability in the drinking water [1]: stable
- bone marrow, BM5d proviral DNA copy number (E) (BM5d proviral DNA; [2]): 28,500±3,535 Proviral DNA molecules per 0.3 µg of total cellular DNA
- bone marrow, inhibition of BM5d (% vs. Infected) (F) (BM5d proviral DNA; [2]): 4.135±5.847%
- lymph node, BM5d proviral DNA copy number (C) (BM5d proviral DNA; [2]): 30,966±7,169 Proviral DNA molecules per 0.3 µg of total cellular DNA
- lymph node, inhibition of BM5d (% vs. Infected) (D) (BM5d proviral DNA; [2]): 85.89±3.26 %
- spleen, BM5d proviral DNA copy number (A) (BM5d proviral DNA; [2]): 135,000±20,000 Proviral DNA molecules per 0.3 µg of total cellular DNA
- spleen, inhibition of BM5d (% vs. Infected) (B) (BM5d proviral DNA; [2]): 15.14±9.60%
- bone marrow, BM5d proviral DNA copy number (E) (BM5d proviral DNA; [3]): 13,761±8,766 Proviral DNA molecules per 0.3 µg of total cellular DNA
- bone marrow, inhibition of BM5d (% vs. Infected) (F) (BM5d proviral DNA; [3]): 51.51±30.83 %
- spleen, BM5d proviral DNA copy number (A) (BM5d proviral DNA; [3]): 39,669±19,026 Proviral DNA molecules per 0.3 µg of total cellular DNA
- spleen, inhibition of BM5d (% vs. Infected) (B) (BM5d proviral DNA; [3]): 73.30±12.53 %
- Lymph node w. (LP-BM5; [2]): 1.060 ± 0.240 g
- Spleen w. (LP-BM5; [2]): 0.520 ± 0.070 g
- Lymph node w. (LP-BM5; [3]): 0.550 ± 0.330 g
- Spleen w. (LP-BM5; [3]): 0.580 ± 0.150 g

Source: patent publication EP0987025A1, “Pharmaceitical composition or composition package containing a pyrimidine nucleoside analogue and a purine nucleoside analogue” (priority 1998, dated 2000)
